Data reported in patent US5409933A, “Quinoline derivatives and processes for preparing the same” (priority 1993, dated 1995).
Structures can show the parent of a compound that is named as a salt. Where two headings read alike, the source gives them in different places.

Tests used:
Experiment in all cases: In Vitro Anti-Bacterial Activity Test (MIC, agar dilution)
Assay type in all cases: cell-based
Escherichia coli DC2 = system: Escherichia coli DC2
How it was run: (§1)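 Muller-Hinton agar dilution method. Inoculum 10^7 C.F.U./ml; 37° C., 18 h. Endpoint: minimum inhibitory concentration by growth inspection. Ciprofloxacin control.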

Escherichia coli DC0 = settings: Muller-Hinton agar, 37° C., 18 hours, read-out: MIC
How it was run: as §1

Salmonella typhimurium = settings: Salmonella enterica
How it was run: as §1

[1] = system: Pseudomonas aeruginosa 1592E; settings: Muller-Hinton agar, 37° C., 18 hours, read-out: MIC
How it was run: as §1

[2] = system: Staphylococcus aureus SG511; settings: Staphylococcus aureus SG511; Muller-Hinton agar, 37° C., 18 hours; read-out: MIC
How it was run: as §1

[3] = system: Staphylococcus aureus 285; settings: Staphylococcus aureus, 285, 18 h, Staphylococcus aureus 285; Muller-Hinton agar, 37° C., 18 hours; read-out: MIC
How it was run: as §1

[4] = system: Pseudomonas aeruginosa 9027; settings: Muller-Hinton agar, 37° C., 18 hours, read-out: MIC
How it was run: as §1

[5] = system: Pseudomonas aeruginosa 1771; settings: Pseudomonas aeruginosa 1771; Muller-Hinton agar, 37° C., 18 hours; read-out: MIC
How it was run: as §1

Escherichia coli 1507E = settings: Muller-Hinton agar, 37° C.
How it was run: as §1

Escherichia coli 078 = system: Escherichia coli 078
How it was run: as §1

[6] = system: Streptococcus pyogenes 308A; settings: Muller-Hinton agar, 37° C., 18 hours, read-out: MIC
How it was run: as §1

[7] = system: Staphylococcus aureus 503; settings: Staphylococcus aureus 503; Muller-Hinton agar, 37° C., 18 hours; read-out: MIC
How it was run: as §1

[8] = system: Klebsiella aerogenes 1522E; settings: Klebsiella aerogenes, 1522E, 18 h
How it was run: as §1

[9] = system: Streptococcus pyogenes 77A
How it was run: as §1

Enterobacter cloacae P99 = settings: Enterobacter cloacae, P99, 18 h
How it was run: (§2)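 Via the agar dilution method, compound-supplemented Muller-Hinton plates received 10^7 C.F.U./ml inocula. Incubation ran 18 hours at 37° C., and MIC corresponded to the lowest concentration without growth.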

[10] = system: Enterobacter cloacae 1321E; settings: Enterobacter cloacae 1321E; Muller-Hinton agar, 37° C., 18 hours; read-out: MIC
How it was run: as §1

Escherichia coli TEM = settings: Escherichia coli, 18 h, Muller-Hinton agar, 37° C.
How it was run: as §2

Klebsiella oxytoca 1082E = settings: Klebsiella oxytoca 1082E; Muller-Hinton agar, 37° C., 18 hours; read-out: MIC
How it was run: as §1

[11] = system: Streptococcus faecium MD8b; settings: Enterococcus faecium, Muller-Hinton agar, 37° C., 18 hours, read-out: MIC
How it was run: as §1

[12] = system: Pseudomonas aeruginosa 1771M; settings: Pseudomonas aeruginosa, 1771M, 18 h, Muller-Hinton agar, 37° C.
How it was run: as §1

[13] = Salmonella typhimurium, Muller-Hinton agar, 37° C., 18 hours, read-out: MIC
[14] = Klebsiella aerogenes 1522E, Muller-Hinton agar, 37° C., 18 hours, read-out: MIC
[15] = Streptococcus pyogenes 77A, Muller-Hinton agar, 37° C., 18 hours, read-out: MIC
[16] = Escherichia coli DC2, Muller-Hinton agar, 37° C., 18 hours, read-out: MIC

Row | Structure (SMILES) | MIC (Escherichia coli DC2; Escherichia coli, DC2, 18 h) | MIC (Escherichia coli DC0) | MIC (Salmonella typhimurium; [13]) | MIC [1] | MIC [2] | MIC [3] | MIC [4] | MIC [5] | MIC (Escherichia coli 1507E; Escherichia coli, 1507E, 18 h) | MIC (Escherichia coli 078; Escherichia coli, 078, 18 h) | MIC [6] | MIC [7] | MIC [8, 14] | MIC [9, 15] | MIC (Enterobacter cloacae P99) | MIC [10] | MIC (Escherichia coli TEM) | MIC (Klebsiella oxytoca 1082E) | MIC [11] | MIC [12] | other results
1 | CS(=O)(=O)CC(=O)c1cn(C2CC2)c2c(Cl)c(N3CCC(N)C3)c(F)cc2c1=O (stereo not drawn) [Example 33, 1-cyclopropyl-6-fluoro-8-chloro-7-(3-aminopyrrolidin-1-yl)-3-(2-methanesulfonylacetyl)-1,4-dihydro-4-oxoquinoline hydrochloride] | 0.098 mg/L | 0.195 mg/L | 0.781 mg/L | 1.56 mg/L | 1.56 mg/L | 1.56 mg/L | 1.56 mg/L | 1.56 mg/L | 0.195 mg/L | 0.195 mg/L | 3.12 mg/L | 0.781 mg/L | 0.391 mg/L | 3.12 mg/L | 0.195 mg/L | 0.098 mg/L | 0.098 mg/L | 0.391 mg/L | 6.25 mg/L | 0.781 mg/L | 
2 | CCOC(=O)C(C(=O)OCC)C(=O)c1cn(C2CC2)c2c(Cl)c(N3CC4=C(CNC4)C3)c(F)cc2c1=O [Example 36, 1-cyclopropyl-6-fluoro-8-chloro-7-(3,7-diazabicyclo[3.3.0]oct-1,5-en-3-yl)-3-(2,2-diethoxycarbonylacetyl)-1,4-dihydro-4-oxoquinoline hydrochloride] | 0.049 mg/L | 0.195 mg/L | 0.025 mg/L | 0.781 mg/L | 0.025 mg/L | 0.049 mg/L | 1.56 mg/L | 0.781 mg/L | 0.025 mg/L | 0.007 mg/L | 0.391 mg/L | 0.049 mg/L | 0.025 mg/L | 0.098 mg/L | 0.025 mg/L | 0.025 mg/L | 0.025 mg/L | 0.007 mg/L | 0.195 mg/L | 0.195 mg/L | 
3 | CC(=O)CC(=O)c1cn(C2CC2)c2c(Cl)c(N3CCC(N)C3)c(F)cc2c1=O (stereo not drawn) [Example 37, 1-cyclopropyl-6-fluoro-8-chloro-7-(3-aminopyrrolidin-1-yl)-3-(2-acetoacetyl)-1,4-dihydro-4-oxoquinoline hydrochloride] | 0.391 mg/L | 0.781 mg/L | 0.195 mg/L | 3.12 mg/L | 0.781 mg/L | 0.781 mg/L | 1.56 mg/L | 1.56 mg/L | 0.195 mg/L | 0.391 mg/L | 1.56 mg/L | 0.781 mg/L | 0.391 mg/L | 3.12 mg/L | 0.195 mg/L | 0.195 mg/L | 0.098 mg/L | 0.195 mg/L | 3.12 mg/L | 0.781 mg/L | 
4 | NC1CCN(c2c(F)cc3c(=O)c(C(=O)CC(=O)C(F)(F)F)cn(C4CC4)c3c2Cl)C1 (stereo not drawn) [Example 38, 1-cyclopropyl-6-fluoro-8-chloro-7-(3-aminopyrrolidin-1-yl)-3-(2-trifluoroacetoacetyl)-1,4-dihydro-4-oxoquinoline hydrochloride] | 0.098 mg/L | 0.195 mg/L | 0.049 mg/L | 0.781 mg/L | 0.391 mg/L | 0.781 mg/L | 1.56 mg/L | 1.56 mg/L | 0.098 mg/L | 0.195 mg/L | 1.56 mg/L | 0.391 mg/L | 0.098 mg/L |  | 0.098 mg/L | 0.049 mg/L | 0.195 mg/L | 0.025 mg/L | 0.781 mg/L | 0.391 mg/L | MIC ([9]; Streptococcus pyogenes, 77A, 18 h): 0.781 mg/L
5 | CCOC(=O)C(C#N)C(=O)c1cn(C2CC2)c2c(Cl)c(N3CCC(N)C3)c(F)cc2c1=O (stereo not drawn) [Example 39, 1-cyclopropyl-6-fluoro-8-chloro-7-(3-aminopyrrolidin-1-yl)-3-(2-cyano-2-ethoxycarbonylacetyl)-1,4-dihydro-4-oxoquinoline hydrochloride] |  | 6.25 mg/L |  | 12.5 mg/L | 1.56 mg/L | 1.56 mg/L | 12.5 mg/L | 12.5 mg/L | 0.781 mg/L | 0.049 mg/L | 25 mg/L | 1.56 mg/L | 0.781 mg/L | 6.25 mg/L | 0.391 mg/L | 0.049 mg/L | 0.391 mg/L | 0.049 mg/L | 6.25 mg/L | 3.12 mg/L | MIC (Escherichia coli DC2; [16]): 3.12 mg/L; MIC (Salmonella typhimurium; TYPHIMURIUM, 18 h): 0.391 mg/L
6 | CCOC(=O)C(C#N)C(=O)c1cn(C2CC2)c2c(Cl)c(N3CC=C(CNC)C3)c(F)cc2c1=O (stereo not drawn) [Example 40, 1-cyclopropyl-6-fluoro-8-chloro-7-(3-methylaminomethyl-2,5-dihydropyrrol-1-yl)-3-(2-cyano-2-ethoxycarbonylacetyl)-1,4-dihydro-4-oxoquinoline hydrochloride] |  | 6.25 mg/L | 0.195 mg/L | 6.25 mg/L | 1.56 mg/L | 3.12 mg/L | 12.5 mg/L | 6.25 mg/L | 0.781 mg/L | 0.098 mg/L | 25 mg/L | 1.56 mg/L |  | 12.5 mg/L | 0.391 mg/L | 0.049 mg/L | 0.391 mg/L | 0.049 mg/L | 12.5 mg/L | 3.12 mg/L | MIC (Escherichia coli DC2; [16]): 3.12 mg/L; MIC [8]: 0.391 mg/L
7 | CCOC(=O)C(C#N)C(=O)c1cn(C2CC2)c2c(Cl)c(N3CC4=C(CNC4)C3)c(F)cc2c1=O (stereo not drawn) [Example 41, 1-cyclopropyl-6-fluoro-8-chloro-7-(3,7-diazabicyclo[3.3.0]oct-1,5-en-3-yl)-3-(2-cyano-2-ethoxycarbonylacetyl)-1,4-dihydro-4-oxoquinoline hydrochloride] | 1.56 mg/L | 3.12 mg/L | 0.098 mg/L | 3.12 mg/L | 3.12 mg/L | 6.25 mg/L | 6.25 mg/L | 3.12 mg/L | 0.391 mg/L | 0.049 mg/L | 25 mg/L | 6.25 mg/L |  | 12.5 mg/L | 0.098 mg/L | 0.049 mg/L | 0.195 mg/L | 0.049 mg/L | 25 mg/L | 1.56 mg/L | MIC [8]: 0.195 mg/L
8 | N#CCC(=O)c1cn(C2CC2)c2c(Cl)c(N3CCC(N)C3)c(F)cc2c1=O (stereo not drawn) [Example 42, 1-cyclopropyl-6-fluoro-8-chloro-7-(3-aminopyrrolidin-1-yl)-3-(2-cyanoacetyl)-1,4-dihydro-4-oxoquinoline hydrochloride] |  | 12.5 mg/L | 1.56 mg/L | 12.5 mg/L | 6.25 mg/L | 3.12 mg/L | 2.5 mg/L | 6.25 mg/L | 0.195 mg/L | 0.098 mg/L | 25 mg/L | 3.12 mg/L | 1.56 mg/L | 12.5 mg/L | 0.781 mg/L | 0.098 mg/L | 0.781 mg/L | 0.098 mg/L | 12.5 mg/L | 6.25 mg/L | MIC (Escherichia coli DC2; [16]): 3.12 mg/L
9 | CNCC1=CCN(c2c(F)cc3c(=O)c(C(=O)CC#N)cn(C4CC4)c3c2Cl)C1 [Example 43, 1-cyclopropyl-6-fluoro-8-chloro-7-(3-methylaminomethyl-2,5-dihydropyrrol-1-yl)-3-(2-cyanoacetyl)-1,4-dihydro-4-oxoquinoline hydrochloride] | 1.56 mg/L | 3.12 mg/L | 0.195 mg/L | 12.5 mg/L | 3.12 mg/L | 3.12 mg/L | 6.25 mg/L | 3.12 mg/L |  |  | 25 mg/L | 0.195 mg/L | 0.781 mg/L | 25 mg/L | 0.391 mg/L | 0.049 mg/L | 1.56 mg/L | 0.098 mg/L | 12.5 mg/L | 1.56 mg/L | MIC (Escherichia coli 1507E; 18 hours, read-out: MIC): 12.5 mg/L; MIC (Escherichia coli 078; Escherichia coli 078, Muller-Hinton agar, 37° C., 18 hours, read-out: MIC): 6.25 mg/L
